Assay results reported in US9284297B2, “Halofuginone analogs for inhibition of tRNA synthetases and uses thereof” (President and Fellows of Harvard College, priority 2008, dated 2016).

How the values were obtained:
[1] = test system: TGFβ-induced Smad phosphorylation and lymphocyte responses to TGFβ; assay: TGFβ signaling in T and B cells; type: cell-based, murine; settings: low dose HF; 10 μM SB-431542
Method: FIG. 10. […] FIG. 10A is a set of FACS analyses of CD4^+ CD25^− T cells activated in Th1 or Th2 polarizing conditions, either in the presence or absence of TGFβ. DMSO, 10 nM HF, 10 nM MAZ1310, or 10 μM SB-431542 added as indicated at the time of activation. Intracellular cytokine staining was performed on expanded T cells on day 5.
FIG. 10D depicts western blot analyses of purified CD4^+ CD25^− T cells treated with DMSO, 40 nM MAZ1310, titrating concentrations of HF (2.5-40 nM) or 10 μM SB-431542 for 30 minutes in complete medium supplemented with 0.1% fetal calf serum. T cells were then activated in the presence or absence of 3 ng/ml TGFβ. Whole cell extracts were prepared after 1 hour of stimulation and western blot analyses were performed using the indicated antibodies.
Th17 differentiation is synergistically regulated by TGFβ and the pro-inflammatory cytokines IL-6 and IL-21. […] Since STAT3 is the major transducer of IL-6 and IL-21 signaling, the kinetics of STAT3 phosphorylation in HF-treated T cells were examined.
Whole cell lysates were generated from T cells activated for the indicated times. For STAT3 and Smad2/3 western blots cells were harvested, washed in PBS and lysed in 50 mM Tris, pH 7.4, 0.1% SDS, 1% Triton-X100, 140 mM NaCl, 1 mM EDTA, 1 mM EGTA supplemented with protease inhibitors tablets (Roche, Germany), 1 mM NaF and 1 mM Na3VO4. […]

[2] = test system: eIF2α phosphorylation and ATF4 protein levels in CD4+ CD25− T cells; assay: Amino acid response (AAR) pathway activation in T cells, western blot; type: cell-based, mice; settings: 10 nM; 4 hours; T cells from wild type or GCN2−/− mice
Method: CD4+ CD25− T cells purified from wild type of GCN2−/− mice were activated through TCR for 4 hours in the presence of halofuginone (10 nM) or 9 (MAZ1310, 10 nM). Whole cell lysates were analyzed by SDS PAGE/Western blot and antibodies indicated.
Naïve T-cells were treated to stimulate the T-cell receptor (TCR) in the presence or absence of 10 nM halofuginone in the presence of 1 mM added amino acid, and then assayed for eIF2alpha activity phosphorylation by SDS PAGE/Western blot.
HF induced detectable eIF2α phosphorylation at 2.5 nM, and this effect plateaued at 5-10 nM HF (FIG. 7D). […] AAR activation was a general consequence of HF treatment; HF induced eIF2α phosphorylation, not only in T cells activated in Th17-priming conditions, but also in resting naïve T cells and T cells activated in ThN, Th1, Th2, and iTreg polarizing conditions (FIG. 7F). […] Thus, the rapid activation of the AAR pathway by HF could underlie both its selective inhibition of Th17 differentiation and its effects on fibroblasts (Pines and Nagler, Gen. Pharmacol. 30:445, 1998).
To delineate the stress response pathway activated by HF, the effects of amino acid starvation with those of tunicamycin (an inducer of ER stress) or HF treatment during T cell activation were compared.
Whole cell lysates were generated from T cells activated for the indicated times. For STAT3 and Smad2/3 western blots cells were harvested, washed in PBS and lysed in 50 mM Tris, pH 7.4, 0.1% SDS, 1% Triton-X100, 140 mM NaCl, 1 mM EDTA, 1 mM EGTA supplemented with protease inhibitors tablets (Roche, Germany), 1 mM NaF and 1 mM Na3VO4. For eIF2α and ATF4 western blots, cells were harvested as above and lysed in 50 mM Tris, pH 7.4, 2% SDS, 20% glycerol and 2 mM EDTA supplemented with protease and phosphatase inhibitors as above. All lysates were cleared via centrifugation and 15-30 μg of protein was resolved by SDS-PAGE. Protein was transferred to nitrocellulose membranes, blocked and blotted using specific antibodies. Antibodies used for western blot analysis were anti-phospho-Smad2, anti-STAT3 (pY705), anti-STAT3, anti-eIF2α^pS51, anti-eIF2α (all from Cell Signaling Technology, Danvers, Mass.). Anti-ATF4/CREB2 and anti-β-actin were purchased from Santa Cruz Biotechnology (Santa Cruz, Calif.). HRP-conjugated secondary antibodies were all purchased from Sigma, with the exception of HRP-conjugated anti-armenian hamster antibody (Jackson Immunoresearch, West Grove, Pa.).

[3] = test system: Human primary dermal fibroblasts; assay: Inhibition of cell spreading in a fibroblast model; type: cell-based; parameters: key: “+++” vs. “++” vs. “+” in general denotes ˜4-fold differences in potency; “+++” vs. “++” vs. “+” in general denotes ˜4-fold differences in potency; “+++” vs. “++” vs. “+” in general denotes ˜4-fold differences in potency; “−” denotes no activity at any dose tested, up to 1000× the effective dose of halofuginone; settings: spreading of cells assessed by light microscopy 28 hours after treatment
Method: The ability of halofuginone and analogs thereof to inhibit the spreading of freshly plated primary dermal fibroblasts was examined. Human primary dermal fibroblasts were replated and halofuginone added immediately after replating; spreading of cells was assessed by light microscopy 28 hours after treatment with compound. “+++” vs. “++” vs. “+” in general denotes ˜4-fold differences in potency. “−” denotes no activity at any dose tested, up to 1000× the effective dose of halofuginone.

[4] = test system: Differentiation of primary naïve T-cells into Th17 cells; assay: Inhibition of Th17 differentiation of primary naïve T-cells by halofuginone analogs; type: cell-based, murine; parameters: key: “+++” vs. “++” vs. “+” in general denotes ˜4-fold differences in potency; “+++” vs. “++” vs. “+” in general denotes ˜4-fold differences in potency; “+++” vs. “++” vs. “+” in general denotes ˜4-fold differences in potency; “−” denotes no activity at any dose tested, up to 1000× the effective dose of halofuginone; settings: T-cell receptor stimulation+IL-6+TGFb
Method: Naïve T-cells were stimulated to differentiate in the presence or absence of 10 nM halofuginone, with 1 mM of the indicated amino acids added to the medium, and stained for Th17 differentiation on day 4. Naïve murine T cells were activated in the presence or absence of TGFβ plus IL-6 as indicated, expanded in for 4 days and restimulated with PMA and ionomycin for intracellular cytokine staining. […] Bars indicate percentage of cells differentiation as Th17 as indicated by IL17 expression.
The effect of different halofuginone and analogs thereof on differentiation of naïve T-cells was assayed as described in legend for FIG. 4 above. Differentiation of primary naïve T-cells into Th17 cells following T-cell receptor stimulation+IL-6+TGFb. “+++” vs. “++” vs. “+” in general denotes ˜4-fold differences in potency. “−” denotes no activity at any dose tested, up to 1000× the effective dose of halofuginone.

[5] = test system: translation of luciferase RNA in rabbit reticulocyte lysate; assay: Translation of a luciferase RNA reporter in rabbit reticulocyte lysate; type: biochemical; parameters: key to Translational inhibition: “+++” vs. “++” vs. “+” in general denotes ˜4-fold differences in potency; “+++” vs. “++” vs. “+” in general denotes ˜4-fold differences in potency; “+++” vs. “++” vs. “+” in general denotes ˜4-fold differences in potency; “−” denotes no activity at any dose tested, up to 1000× the effective dose of halofuginone; settings: luciferase RNA reporter
Method: To distinguish these possibilities, the effect of halofuginone on protein translation was examined in an in vitro system (rabbit reticulocyte lysate) in which amino acids are already present at levels adequate to support protein synthesis. […] Distinct tRNA synthetases catalyze the charging of individual tRNA species with their cognate amino acid. To determine which tRNA synthetase is inhibited by halofuginone, several amino acid mixtures were added to the in vitro translation system to determine which, if any, could reverse the inhibition of translation by halofuginone (FIG. 3). […] To examine whether proline could specifically rescue the effect of halofuginone in intact cells, the ability of each amino acid to reverse the effect of halofuginone on eIF2alpha phosphorylation in T-cells or to prevent halofuginone inhibition of Th17 differentiation was tested (FIG. 4). […] Inhibition of EPRS with compounds of the current invention can inhibit Th17 differentiation.
Translation in vitro was performed using rabbit reticulocyte lysates and luciferase mRNA as template. Translation was measured as arbitrary units of luciferase activity using a luminometer based luminescence assay. Log scale presentation of background-subtracted data is shown.
Inhibition of translation of luciferase RNA by halofuginone and analogs thereof was measured as described in FIG. 3 above. Results are shown of translation of a luciferase RNA reporter in a rabbit reticulocyte lysate. “+++” vs. “++” vs. “+” in general denotes ˜4-fold differences in potency. “−” denotes no activity at any dose tested, up to 1000× the effective dose of halofuginone.

Row | Compound | effect on TGFβ-induced Smad phosphorylation and other lymphocyte responses to TGFβ [1] | phosphorylation of Ser51 of eIF2alpha, GCN2 dependence [2] | Fibroblast inhibition [3] | Inhibition of Th17 differentiation [4] | Translational inhibition [5]
1 | NC(=O)c1ccc(-c2nc(-c3ccc4c(c3)OCO4)c(-c3ccccn3)[nH]2)cc1 [SB-431542] | abrogated all responses to TGFβ |  |  |  | 
2 | CC(C)(C)OC(=O)N1CCCC(O)C1CC(=O)Cn1cnc2cc(Br)c(Cl)cc2c1=O (centres unmarked) [Compound 9, (2S/R,3R/S)-tert-butyl 2-(3-(7-bromo-6-chloro-4-oxoquinazolin-3(4H)-yl)-2-oxopropyl)-3-hydroxypiperidine-1-carboxylate] |  | inactive | − | − | −
